Measurements published in ChEMBL document CHEMBL5500384, “New synergistic benzoquinone scaffolds as inhibitors of mycobacterial cytochrome bc1 complex to treat multi-drug resistant tuberculosis” (Eur J Med Chem, 2024).
Converted amounts (≈) assume the structure as drawn.

How the values were obtained:
Assay type in all cases: functional
[1] = test system: Mycobacterium tuberculosis; experiment: Potentiation of isoniazid antitubercular activity against multidrug resistant Mycobacterium tuberculosis BLG3381 assessed as decrease in isoniazid MIC99.9 at 3.125 ug/ml by broth dilution method (reference value: 12.8 ug/ml); settings: dose 3.125 µg/ml
[2] = test system: Mycobacterium tuberculosis; experiment: Antitubercular activity against multidrug resistant Mycobacterium tuberculosis RF21250 incubated for 5 days by microtiter plate method; settings: time 5 day; for MIC: Mycobacterium tuberculosis, RF21250, 120 h
[3] = test system: Mycobacterium tuberculosis; experiment: Potentiation of rifampicin antitubercular activity against multidrug resistant Mycobacterium tuberculosis RF21250 assessed as decrease in rifampicin MIC99.9 at 0.78 ug/ml by broth dilution method (reference value: 128 ug/ml); settings: dose 0.78 µg/ml
[4] = test system: Mycobacterium tuberculosis; experiment: Potentiation of isoniazid antitubercular activity against multidrug resistant Mycobacterium tuberculosis RF21250 assessed as decrease in isoniazid MIC99.9 at 0.78 ug/ml by broth dilution method (reference value: 3.2 ug/ml); settings: dose 0.78 µg/ml
[5] = test system: Mycobacterium tuberculosis; experiment: Antitubercular activity against multidrug resistant Mycobacterium tuberculosis BLG3381 incubated for 5 days by microtiter plate method; settings: BLG3381, 120 h, time 5 day
[6] = test system: Mycobacterium tuberculosis; experiment: Potentiation of isoniazid antitubercular activity against multidrug resistant Mycobacterium tuberculosis RF21212 assessed as decrease in isoniazid MIC99.9 at 1.56 ug/ml by broth dilution method (reference value: 12.8 ug/ml); settings: dose 1.56 µg/ml
[7] = test system: Mycobacterium tuberculosis; experiment: Potentiation of rifampicin antitubercular activity against multidrug resistant Mycobacterium tuberculosis RF21212 assessed as decrease in rifampicin MIC99.9 at 0.78 ug/ml by broth dilution method (reference value: 128 ug/ml); settings: dose 0.78 µg/ml
[8] = test system: Mycobacterium tuberculosis; experiment: Antitubercular activity against multidrug resistant Mycobacterium tuberculosis RF21212 incubated for 5 days by microtiter plate method; settings: time 5 day; for MIC: Mycobacterium tuberculosis, RF21212, 120 h
[9] = test system: Mycobacterium tuberculosis; experiment: Potentiation of rifampicin antitubercular activity against multidrug resistant Mycobacterium tuberculosis BLG3381 assessed as decrease in rifampicin MIC99.9 at 3.125 ug/ml by broth dilution method (reference value: 64 ug/ml); settings: dose 3.125 µg/ml
[10] = test system: Mycobacterium tuberculosis; experiment: Potentiation of isoniazid antitubercular activity against multidrug resistant Mycobacterium tuberculosis RF21212 assessed as decrease in isoniazid MIC99.9 at 3.125 ug/ml by broth dilution method (reference value: 12.8 ug/ml); settings: dose 3.125 µg/ml
[11] = test system: Mycobacterium tuberculosis; experiment: Potentiation of rifampicin antitubercular activity against multidrug resistant Mycobacterium tuberculosis RF21212 assessed as decrease in rifampicin MIC99.9 at 3.125 ug/ml by broth dilution method (reference value: 128 ug/ml); settings: dose 3.125 µg/ml
[12] = test system: Mycobacterium tuberculosis; experiment: Potentiation of rifampicin antitubercular activity against multidrug resistant Mycobacterium tuberculosis RF21250 assessed as decrease in rifampicin MIC99.9 at 3.125 ug/ml by broth dilution method (reference value: 128 ug/ml); settings: dose 3.125 µg/ml
[13] = test system: Mycobacterium tuberculosis; experiment: Potentiation of isoniazid antitubercular activity against multidrug resistant Mycobacterium tuberculosis RF21250 assessed as decrease in isoniazid MIC99.9 at 3.125 ug/ml by broth dilution method (reference value: 3.2 ug/ml); settings: dose 3.125 µg/ml
[14] = test system: Mycobacterium tuberculosis; experiment: Potentiation of rifampicin antitubercular activity against multidrug resistant Mycobacterium tuberculosis BLG3381 assessed as decrease in rifampicin MIC99.9 at 6.25 ug/ml by broth dilution method (reference value: 64 ug/ml); settings: dose 6.25 µg/ml
[15] = test system: Mycobacterium tuberculosis; experiment: Potentiation of isoniazid antitubercular activity against multidrug resistant Mycobacterium tuberculosis BLG3381 assessed as decrease in isoniazid MIC99.9 at 6.25 ug/ml by broth dilution method (reference value: 12.8 ug/ml); settings: dose 6.25 µg/ml
[16] = test system: Mycobacterium tuberculosis; experiment: Potentiation of isoniazid antitubercular activity against multidrug resistant Mycobacterium tuberculosis BLG3381 assessed as decrease in isoniazid MIC99.9 at 0.39 ug/ml by broth dilution method (reference value: 12.8 ug/ml); settings: dose 0.39 µg/ml
[17] = test system: Mycobacterium tuberculosis; experiment: Potentiation of isoniazid antitubercular activity against multidrug resistant Mycobacterium tuberculosis RF21250 assessed as decrease in isoniazid MIC99.9 at 0.39 ug/ml by broth dilution method (reference value: 3.2 ug/ml); settings: dose 0.39 µg/ml
[18] = test system: Mycobacterium tuberculosis; experiment: Potentiation of rifampicin antitubercular activity against multidrug resistant Mycobacterium tuberculosis BLG3381 assessed as decrease in rifampicin MIC99.9 at 0.39 ug/ml by broth dilution method (reference value: 64 ug/ml); settings: dose 0.39 µg/ml
[19] = test system: Mycobacterium tuberculosis; experiment: Potentiation of rifampicin antitubercular activity against multidrug resistant Mycobacterium tuberculosis RF21250 assessed as decrease in rifampicin MIC99.9 at 0.39 ug/ml by broth dilution method (reference value: 128 ug/ml); settings: dose 0.39 µg/ml
[20] = test system: Mycobacterium tuberculosis; experiment: Potentiation of rifampicin antitubercular activity against multidrug resistant Mycobacterium tuberculosis RF21212 assessed as decrease in rifampicin MIC99.9 at 1.56 ug/ml by broth dilution method (reference value: 128 ug/ml); settings: dose 1.56 µg/ml
[21] = test system: Mycobacterium tuberculosis; experiment: Potentiation of isoniazid antitubercular activity against multidrug resistant Mycobacterium tuberculosis RF21250 assessed as decrease in isoniazid MIC99.9 at 1.56 ug/ml by broth dilution method (reference value: 3.2 ug/ml); settings: dose 1.56 µg/ml
[22] = test system: Mycobacterium tuberculosis; experiment: Potentiation of isoniazid antitubercular activity against multidrug resistant Mycobacterium tuberculosis RF21212 assessed as decrease in isoniazid MIC99.9 at 0.78 ug/ml by broth dilution method (reference value: 12.8 ug/ml); settings: dose 0.78 µg/ml

Row | SMILES | MIC99.9 [1] [µg/mL] | MIC99.9 [2] [µg/mL] | MIC99.9 [3] [µg/mL] | MIC99.9 [4] [µg/mL] | MIC [5] | MIC99.9 [6] [µg/mL] | MIC [8] [µM] | MIC99.9 [9] [µg/mL] | MIC99.9 [10] [µg/mL] | MIC99.9 [11] [µg/mL] | MIC [2] [µM] | MIC99.9 [8] [µg/mL] | MIC99.9 [20] [µg/mL] | also measured
1 | CCOc1cc(C2C(Cl)C(=O)N2C2=C(Cl)C(=O)c3ccccc3C2=O)ccc1O (stereo not given) | 0.05 | 3.125 (≈ 7.23 µM) | 1 | 0.2 | 28.9 µM | 0.4 | 7.23 (≈ 3.13 µg/mL) | 0.5 |  |  |  |  |  | MIC99.9 [7]: 0.5 µg/mL
2 | O=C1C(Cl)=C(N2C(=O)C(Cl)C2c2ccc([N+](=O)[O-])cc2)C(=O)c2ccccc21 (stereo not given) | 0.025 | 3.125 (≈ 7.49 µM) | 2 | 0.4 | 15 µM |  | 30 (≈ 12.5 µg/mL) | 0.25 | 1.6 | 2 |  |  |  | 
3 | O=C1C(Cl)=C(Cl)C(=O)c2ccccc21 [Dichlon] |  |  |  |  | 55.1 µM |  | 55.1 (≈ 12.5 µg/mL) |  | 3.2 | 32 | 27.5 (≈ 6.25 µg/mL) |  |  | MIC99.9 [12]: 16 µg/mL; MIC99.9 [13]: 0.4 µg/mL; MIC99.9 [14]: 8 µg/mL; MIC99.9 [15]: 0.8 µg/mL
4 | NC1=C(Cl)C(=O)c2ccccc2C1=O |  | 3.125 (≈ 15.1 µM) |  |  | 15.1 µM |  |  |  | 1.6 | 4 |  | 6.25 (≈ 30.1 µM) |  | MIC99.9 [16]: 0.8 µg/mL; MIC99.9 [17]: 0.2 µg/mL; MIC99.9 [18]: 0.007 µg/mL; MIC99.9 [19]: 0.125 µg/mL
5 | CN(C)c1ccc(C2C(Cl)C(=O)N2C2=C(Cl)C(=O)c3ccccc3C2=O)cc1 (stereo not given) | 1.6 | 6.25 (≈ 15.1 µM) | 1 |  | 30.1 µM | 3.2 |  | 4 |  |  |  | 6.25 (≈ 15.1 µM) | 16 | MIC99.9 [21]: 1.6 µg/mL
6 | CO[C@H]1/C=C/O[C@@]2(C)Oc3c(C)c(O)c4c(O)c(c(/C=N/N5CCN(C)CC5)c(O)c4c3C2=O)NC(=O)/C(C)=C\C=C\[C@H](C)[C@H](O)[C@@H](C)[C@@H](O)[C@@H](C)[C@H](OC(C)=O)[C@@H]1C [RIFAMPIN] |  |  |  |  | 77.8 µM |  | 156 (≈ 128 µg/mL) |  |  |  | 156 (≈ 128 µg/mL) |  |  | 
7 | O=C1C(Cl)=C(N2C(=O)C(Cl)C2c2ccc(Cl)cc2)C(=O)c2ccccc21 (stereo not given) | 1.6 | 6.25 (≈ 15.4 µM) | 4 | 0.8 | 30.8 µM | 0.1 |  | 0.1 |  |  |  | 6.25 (≈ 15.4 µM) | 0.031 | 
8 | COc1ccc(C2C(Cl)C(=O)N2C2=C(Cl)C(=O)c3ccccc3C2=O)cc1 (stereo not given) | 0.4 | 6.25 (≈ 15.5 µM) |  |  | 15.5 µM |  | 31.1 (≈ 12.5 µg/mL) | 1 |  |  |  |  | 16 | MIC99.9 [22]: 1.6 µg/mL; MIC99.9 [17]: 0.4 µg/mL; MIC99.9 [19]: 0.125 µg/mL
9 | O=C1C(Cl)=C(N2C(=O)C(Cl)C2c2ccccc2)C(=O)c2ccccc21 (stereo not given) |  |  |  |  | 6.25 µg/mL |  |  |  |  |  |  |  |  | 
10 | NNC(=O)c1ccncc1 [ISONIAZID] |  |  |  |  | 93.9 µM |  | 93.9 (≈ 12.9 µg/mL) |  |  |  | 23.3 (≈ 3.2 µg/mL) |  |  | 
